In patent publication EP4011367A1, “COMPOUNDS FOR USE IN THE TREATMENT OF COVID-19” (priority 2020, dated 2022):
pIC50: −log10 of the molar value. Structures can show the parent of a compound that is named as a salt. Where two headings read alike, the source gives them in different places.

Molecular target: T1, SARS-CoV-2 3CL-Pro (Severe acute respiratory syndrome coronavirus 2, UniProt P0DTD1)
T1 construct: SARS-CoV-2 main protease (3CL-Pro), also termed M-Pro
Assay: biochemical
Conditions: for inhibition at 20 µM: read-out: 3CL-Pro Inhibition [%] Primary Screen (20 µM)

[1] = dose response, 8 concentrations, absence of DTT, 60 min pre-incubation at 37 °C, 15 µM substrate, 60 nM enzyme, read-out: IC50

For `CCOC(=O)Cc1ccc(-c2ccccc2)cc1` [compound 57, [1,1'-Biphenyl]-4-acetic acid ethyl ester], the inhibition at 20 µM was 96.2% and the pIC50 (read-out: IC50) was 6.70.

For `O=C1C=CC(=O)C2=C1C1c3ccccc3C2c2ccccc21` [compound 61, Pentacyclo[6.6.6.0(2,7).0(9,14).0(15,20)]icosa-2(7),4,9,11,13,15,17,19-octaene-3,6-dione], the inhibition at 20 µM was 99.2% and the pIC50 (read-out: IC50) was 6.62.

In the case of `O=C(O)c1ccccc1-c1c2cc(Br)c(=O)cc-2oc2[c]([Hg][OH])c(O)c(Br)cc12` [compound 62, [2,7-dibromo-9-(2-carboxyphenyl)-3-hydroxy-6-oxoxanthen-4-yl]mercury;hydrate], the pIC50 was 6.62.

For `CCOc1cc(C(Nc2cc(C)ccn2)c2ccc3cccnc3c2O)ccc1OC` (stereo not shown) [compound 63, 7-[(3-Ethoxy-4-methoxyphenyl)[(4-methylpyridin-2-yl)amino]methyl]quinolin-8-ol], the pIC50 was 6.57 and the inhibition at 20 µM was 98.9%.

`O=[N+]([O-])c1cnc(Sc2nnc(O)n2-c2ccc3c(c2)OCCO3)s1` [compound 64, 4-(2,3-Dihydro-1,4-benzodioxin-6-yl)-5-(5-nitrothiazol-2-ylsulfanyl)-4H-1,2,4-triazol-3-ol] gave an inhibition at 20 µM of 96.4% and a pIC50 (read-out: IC50) of 6.52.

Molecule `Oc1c(I)cc(I)c(O)c1I` [compound 65, 2,4,6-Triiodoresorcine] has an inhibition at 20 µM of 99.7% and a pIC50 (read-out: IC50) of 6.48.

Work on `N#CSc1cc(SC#N)c(N)nc1N` [compound 66, 2,6-Diaminopyridine-3,5-diyl bis(thiocyanate)] yielded a pIC50 (read-out: IC50) of 6.39.

`O=[N+]([O-])C(Br)(CO)CO` [compound 67, 2-bromo-2-nitropropane-1,3-diol] was tested, and the inhibition at 20 µM was 99.9% and the pIC50 (read-out: IC50) was 6.38.

`Oc1cc(CNC(=S)C=Cc2cc(O)c(O)c(Br)c2)cc(O)c1O` [compound 68, 3-(3-Bromo-4,5-dihydroxyphenyl)-N-(3,4,5-trihydroxybenzyl)-2-propenethioamide] gave a pIC50 [1] of 6.32 and an inhibition at 20 µM of 79.4%.

`Oc1cc2c(cc1C(c1ccc(C(F)(F)F)cc1)N1CCOCC1)OCO2` (stereo not shown) [compound 70, 6-[morpholin-4-yl-[4-(trifluoromethyl)phenyl]methyl]-1,3-benzodioxol-5-ol] showed an inhibition at 20 µM of 81.4% and a pIC50 (read-out: IC50) of 6.27.

`CC(C)N(CCC(=O)c1ccc2ccccc2c1)Cc1ccccc1` [compound 71, 3-[benzyl(propan-2-yl)amino]-1-naphthalen-2-ylpropan-1-one] was tested, and the inhibition at 20 µM was 75.7% and the pIC50 (read-out: IC50) was 6.24.

`COc1cccc2c1C(=O)c1c(O)c3c(c(O)c1C2=O)C[C@@](O)(C(CO)=NNC(=O)CCCCCN1C(=O)C=CC1=O)C[C@@H]3O[C@H]1C[C@H](N)[C@H](O)[C@H](C)O1` [compound 72, N'-[1-[4(S)-(3-Amino-2,3,6-trideoxy-alpha-L-lyxo-hexopyranosyloxy)-2(S),5,12-trihydroxy-7-methoxy-6,11-dioxo-1,2,3,4,6,11-hexahydronaphthacen-2-yl]-2-hydroxyethylidene]-6-(2,5-dioxo-2,5-dihydro-1H-pyrrol-1-yl)hexanohydrazide hydrochloride] gave a pIC50 of 6.24 and an inhibition at 20 µM of 101%.

`CC[C@H](CO)Nc1nc(NCc2ccc(-c3ccccn3)cc2)c2ncn(C(C)C)c2n1` [compound 73, (2R)-2-[[9-propan-2-yl-6-[(4-pyridin-2-ylphenyl)methylamino]purin-2-yl]amino]butan-1-ol] showed an inhibition at 20 µM of 99.5% and a pIC50 (read-out: IC50) of 6.08.

For `C=CC1=C(C)C2=Cc3c(C=C)c(C)c4[n]3[Fe]([Cl])[n]3c(c(C)c(CCC(=O)O)c3=CC3=NC(=C4)C(C)=C3CCC(=O)O)=CC1=N2` [compound 74, - (SP-5-13)-Chloro[3,8,13,17-tetramethyl-7,12-divinyl-21H,23H-porphine-2,18-dipropanoato(4-)-kappa N21,kappaN22,kappaN23,kappaN24]dihydrogenoferrate(2-)], the pIC50 was 6.06.

Work on `CN(C)C(=S)SC(=S)N(C)C` [compound 75, dimethylcarbamothioyl N,N-dimethylcarbamodithioate] yielded a pIC50 (read-out: IC50) of 6.03.

`CN=c1nc(-c2ccccc2)n(-c2ccccc2)s1` [compound 76, N-(2,3-Diphenyl-2,5-dihydro-1,2,4-thiadiazol-5-ylidene)-N-methylamine] gave a pIC50 [1] of 6.01 and an inhibition at 20 µM of 99.8%.

In the case of `COc1cc(C(=S)N2CCOCC2)ccc1O` [compound 79, (4-hydroxy-3-methoxyphenyl)-orpholin-4-ylmethanethione], the inhibition at 20 µM was 100% and the pIC50 (read-out: IC50) was 5.88.

Work on `CNC(=O)ON(C(C)=O)C(=O)NC` [compound 80, N-[(Methylamino)carbonyl]-N-[[(methylamino)carbonyl]oxy]ace tamide] yielded an inhibition at 20 µM of 96.4% and a pIC50 (read-out: IC50) of 5.88.

Molecule `O=C(O)c1cc(O)c2c(c1)[C@H]([C@H]1c3cc(C(=O)O)cc(O)c3C(=O)c3c(O[C@@H]4O[C@H](CO)[C@@H](O)[C@H](O)[C@H]4O)cccc31)c1cccc(O[C@@H]3O[C@H](CO)[C@@H](O)[C@H](O)[C@H]3O)c1C2=O` [compound 81, (9R)-9-[(9R)-2-carboxy-4-hydroxy-10-oxo-5-[(2S,3R,4S,5S,6R)-3,4,5-trihydroxy-6-(hydroxymethyl)oxan-2-yl]oxy-9H-anthracen-9-yl]-4-hydroxy-10-oxo-5-[(2S,3R,4S,5S,6R)-3,4,5-trihydroxy-6-(hydroxymethyl)oxan-2-yl]oxy-9H-anthracene-2-carboxylic acid] has an inhibition at 20 µM of 103%.

`O=C(O)C(S)C(S)C(=O)O` (stereo not shown) [compound 82, 2,3-bis(sulfanyl)butanedioic acid] showed a pIC50 of 5.76 and an inhibition at 20 µM of 98.9%.

With `Cc1ccccc1N(C)C(=O)c1ccc([S+]([O-])c2nccs2)c([N+](=O)[O-])c1` (stereo not shown) [compound 84, N-methyl-N-(2-methylphenyl)-3-nitro-4-(1,3-thiazol-2-ylsulfinyl)benzamide] the inhibition at 20 µM was 96.7% and the pIC50 (read-out: IC50) was 5.73.

`CN1CC[C@@]2(C)c3cc(O)ccc3N(C)[C@@H]12` [compound 85, (3aS,8bR)-3,4,8b-trimethyl-2,3a-dihydro-1H-pyrrolo[2,3-b] indol-7-ol] gave an inhibition at 20 µM of 91.5% and a pIC50 (read-out: IC50) of 5.70.

`O=C(O)CCCCCCCCCCCCCCc1ccc(I)cc1` [compound 88, 15-(4-iodophenyl)pentadecanoic acid] gave an inhibition at 20 µM of 95% and a pIC50 (read-out: IC50) of 5.65.

Work on `COc1cccc(C(=O)CCN[C@@H](C)[C@H](O)c2ccccc2)c1` [compound 89, 3-[2(R)-Hydroxy-1(S)-methyl-2-phenylethylamino]-1-(3-methoxyphenyl)propan-1-one hydrochloride] yielded an inhibition at 20 µM of 90.8% and a pIC50 (read-out: IC50) of 5.63.

Work on `C[N+]1(C)CCC(OC(=O)C(c2ccccc2)c2ccccc2)CC1` [compound 90, (1,1-dimethylpiperidin-1-ium-4-yl) 2,2-diphenylacetate;iodide] yielded a pIC50 of 5.63 and an inhibition at 20 µM of 97.8%.

`C=C1C(=O)[C@@]23C(CC[C@@H]1[C@H]2O)[C@@]12CO[C@]3(O)[C@@H](O)[C@@H]1C(C)(C)CC[C@@H]2O` (stereo partly drawn) [compound 91, (1S,5S,8R,9S,10S,11R,15S,18R)-9,10,15,18-tetrahydroxy-12,12-dimethyl-6-methylidene-17-oxapentacyclo[7.6.2.15,8.01,11.0 2,8]octadecan-7-one] gave an inhibition at 20 µM of 98.2%.
